A word on the EC50: it is the concentration giving half of the maximal effect.

These results are taken from ChEMBL document CHEMBL1212753, “Inducible APOBEC3G-Vif double stable cell line as a high-throughput screening platform to identify antiviral compounds” (Antimicrob Agents Chemother, 2010).

Each structure is given as a SMILES string.

Assay [1] is described as follows: Inhibition of HIV Vif induced human cytidine-deaminase degradation in double transgenic HEK293 cells constitutively expressing enhanced yellow fluorescent protein expressor (EYFP-A3G) fusion and Tet-Off controllable Vif protein after 24 hrs by fluorimetric assay. In kind it is cell-based, Human immunodeficiency virus.
Assay [2] is described as follows: Inhibition of HIV Vif by replicating virus inhibition assay. Further details: species or system Human immunodeficiency virus.

With `COc1ccccc1NC(=O)c1ccccc1Sc1ccc([N+](=O)[O-])cc1`, the EC50 is 5.8 µM in assay [1] and 3 µM in assay [2].
